Experimental data as given in PubChem BioAssay (NCI).
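Tested at 5 concentrations; 48 h exposure; 96-well plates; endpoints linearly interpolated, else capped at highest concentration. TGI denotes the concentration required for complete inhibition of growth.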

Assays:
Experiment in all cases: NCI tumour cell line growth inhibition, 48 h
EKVX NSCLC = system: EKVX NSCLC
HL-60(TB) leukemia = system: HL-60(TB) leukemia
HCC-2998 colon = system: HCC-2998 colon
SK-MEL-2 melanoma = system: SK-MEL-2 melanoma
HT29 colon = system: HT29 colon
HOP-18 NSCLC = system: HOP-18 NSCLC
IGROV1 ovarian = system: IGROV1 ovarian
SK-MEL-5 melanoma = system: SK-MEL-5 melanoma
SW-620 colon = system: SW-620 colon
SF-539 CNS = system: SF-539 CNS
COLO 205 colon = system: COLO 205 colon
SN12C renal = system: SN12C renal
M19-MEL melanoma = system: M19-MEL melanoma
DMS 114 small cell lung = system: DMS 114 small cell lung
HCT-116 colon = system: HCT-116 colon
KM12 colon = system: KM12 colon
SNB-78 CNS = system: SNB-78 CNS
OVCAR-5 ovarian = system: OVCAR-5 ovarian
SNB-75 CNS = system: SNB-75 CNS
ACHN renal = system: ACHN renal
RPMI-8226 leukemia = system: RPMI-8226 leukemia
DLD-1 colon = system: DLD-1 colon
LOX IMVI melanoma = system: LOX IMVI melanoma
SR leukemia = system: SR leukemia
SK-OV-3 ovarian = system: SK-OV-3 ovarian
A549 NSCLC = system: A549 NSCLC
NCI-H522 lung = system: NCI-H522 lung
SF-268 CNS = system: SF-268 CNS
MALME-3M melanoma = system: MALME-3M melanoma
HCT-15 colon = system: HCT-15 colon
LXFL 529 NSCLC = system: LXFL 529 NSCLC
OVCAR-8 ovarian = system: OVCAR-8 ovarian
A498 renal = system: A498 renal
NCI-H460 lung = system: NCI-H460 lung
DMS 273 small cell lung = system: DMS 273 small cell lung
UO-31 renal = system: UO-31 renal
TK-10 renal = system: TK-10 renal
RXF 393 renal = system: RXF 393 renal
NCI-H23 lung = system: NCI-H23 lung
M14 melanoma = system: M14 melanoma
CAKI-1 renal = system: CAKI-1 renal
UACC-62 melanoma = system: UACC-62 melanoma
OVCAR-3 ovarian = system: OVCAR-3 ovarian
KM20L2 colon = system: KM20L2 colon
MOLT-4 leukemia = system: MOLT-4 leukemia
786-0 renal = system: 786-0 renal
SK-MEL-28 melanoma = system: SK-MEL-28 melanoma
SF-295 CNS = system: SF-295 CNS
UACC-257 melanoma = system: UACC-257 melanoma
HOP-62 NSCLC = system: HOP-62 NSCLC
HOP-92 NSCLC = system: HOP-92 NSCLC
OVCAR-4 ovarian = system: OVCAR-4 ovarian
NCI-H226 lung = system: NCI-H226 lung
U251 CNS = system: U251 CNS

Measured: TGI

O=C1C(c2ccccc2)=C(c2ccccc2)C(c2ccccc2)/C1=C1\C(=O)C(c2ccccc2)=C(c2ccccc2)C1c1ccccc1 (centres undefined)
> 100 µM: all assays above
